According to patent US10709714B2 (CL BioSciences LLC, priority 2013, dated 2020):
Entries after “also recorded” stand apart in the source; their conditions may differ. Marks after values point to notes of the source that are not given here.

Assays:
ovariectomized CD rats [1] = assay: Bone strength (Instron), Model 2 rat OVX; assay type: in vivo
ovariectomized CD-1 mice [2] = assay: Circulating blood markers, Model 1 mouse OVX; assay type: in vivo
Description: Ovariectomy increased all three bone markers, PINP, CTX1 and osteocalcin. […] CON=control animals, OVX=ovariectomized animals, OVX+GA=gastrin antagonist treated ovariectomized animals. Mean±SEM. *p<0.05 vs. CON, **p<0.05 vs. OVX alone.
Circulating bone biomarkers were also altered by OVX. Specifically, PINP was increased (0.19±0.01 ng/ml vs. 0.1y±0.006, p<0.05) as was CTx-1 (0.60±0.14 ng/ml vs. 0.29±0.13, p<0.05) and osteocalcin was elevated (6.7±2.3 ng/ml vs. 4.1±1.2, p<0.05). Treatment with the antagonist attenuated each of these three ovariectomy-mediated alterations.

ovariectomized CD-1 mice [3] = assay: MicroCT of trabecular and cortical bone, Model 1 mouse OVX; assay type: in vivo
[4] = tested on: calvarial osteoblasts, hFOB, BMMSCs; assay: Proliferation (BrdU uptake) of bone-derived cells; assay type: cell-based, mouse, human; settings: pre-incubation
ovariectomized CD rats [5] = assay: Bone histomorphometry, Model 2 rat OVX; assay type: in vivo; settings: GA single s.c., 8 weeks
Text: These effects were reversed by drug treatment. In one aspect, this reflects that targeting CCK2 receptors normalizes bone morphology irrespective of low estrogen levels.
Gastrin-antagonist treatment reversed these phenomena (FIG. 50).

ovariectomized CD rats [6] = assay: Circulating blood markers, Model 2 rat OVX; assay type: in vivo
Description: Ovariectomy increased PINP and osteocalcin. […] CON=control animals, OVX=ovariectomized animals, OVX+GA=gastrin antagonist treated ovariectomized animals. Mean±SEM. *p<0.05 vs. CON, **p<0.05 vs. OVX alone.
Circulating bone biomarkers were also altered by OVX. Specifically, both PINP (0.57±0.18 ng/ml vs. 0.35±0.06, p<0.05) and osteocalcin was elevated (1.35±0.9 ng/ml vs. 0.43±0.07, p<0.05). Treatment with the antagonist attenuated each of these ovariectomy-mediated alterations.

ovariectomized Mastomys = assay: MicroCT of trabecular and cortical bone, Model 3 Mastomys OVX; assay type: in vivo
[7] = OVX CD rats + omeprazole, GA 50 ug/animal single s.c., 8 weeks
[8] = OVX CD rats, GA-treated vs control
[9] = OVX CD-1 mice + omeprazole, GA 15 ug/animal single s.c., 8 weeks
[10] = OVX CD-1 mice, GA-treated vs control
[11] = OVX CD-1 mice + omeprazole, GA 15 ug/animal single s.c., 8 weeks, cortical bone
[12] = OVX CD-1 mice + omeprazole, GA 15 ug/animal single s.c., 8 weeks, trabecular bone
[13] = OVX CD-1 mice, GA-treated vs control, cortical bone
[14] = OVX CD-1 mice, GA-treated vs control, trabecular bone
[15] = OVX Mastomys + loxitidine, GA 10 ug/animal single s.c., 8 weeks, cortical bone
[16] = OVX Mastomys + loxitidine, GA 10 ug/animal single s.c., 8 weeks, trabecular bone
[17] = OVX Mastomys + loxitidine, GA 10 ug/animal single s.c., 8 weeks, trabecular bone, listed as GA
[18] = OVX Mastomys + loxitidine, GA 10 ug/animal single s.c., 8 weeks, trabecular bone, listed as Gastrin antagonist
[19] = OVX Mastomys, GA-treated vs control, cortical bone
[20] = OVX Mastomys, GA-treated vs control, trabecular bone

## CNc1cccc(NC(=O)N[C@@H]2N=C(c3ccccn3)c3ccccc3N(CC(=O)C(C)(C)C)C2=O)c1 [YF476, netazepide]
Ovariectomized CD rats [1]; [7]
  Fracture Load: 276
  Max Load: 282
  Stiffness: 565
  Total Work: 276
  Yield (Stiffness): 508
Ovariectomized CD rats [1]; [8]
  % Change Fracture Load: −8%
  % Change Max Load: 0%
  % Change Stiffness: −2%**
  % Change Total Work: 0%
  % Change Yield (Stiffness): −2%**
Ovariectomized CD-1 mice [2]; [9]
  CTX-1: 053 ng/mL
  ESR (circulating estrogen): 1.47 pg/mL
  Gastrin (circulating): 2971 pg/mL
  Osteocalcin: 5.3 ng/mL
  PINP: 0.169 ng/mL
  PTH (circulating): 92.1 pg/mL
Ovariectomized CD-1 mice [2]; [10]
  % Change CTX-1: −9%**
  % Change ESR: −71%*
  % Change Gastrin: +22%
  % Change Osteocalcin: +30%**
  % Change PINP: 0%**
  % Change PTH: +79%*
Ovariectomized CD-1 mice [3]; [11]
  BS: 11.3
  BV/TV: 0.93
  Ct. Th: 0.21
  pMOI: 0.35
Ovariectomized CD-1 mice [3]; OVX CD-1 mice + omeprazole, GA 15 ug/animal single s.c., 8 weeks, cortical bone, listed as GA
  Dens (Apparent Density, cortical): 1025
Ovariectomized CD-1 mice [3]; OVX CD-1 mice + omeprazole, GA 15 ug/animal single s.c., 8 weeks, cortical bone, listed as Gastrin-antagonist
  Dens (Apparent Density, cortical): 1025±37
Ovariectomized CD-1 mice [3]; [12]
  BS: 16.8
  BV/TV: 0.123
  Conns-Dens: 128.6
  SMI: 1.38
  Tb. N: 2.43
  Tb. Sp: 0.528
  Tb. Th: 0.051
Ovariectomized CD-1 mice [3]; OVX CD-1 mice + omeprazole, GA 15 ug/animal single s.c., 8 weeks, trabecular bone, listed as GA
  Dens (Apparent Density, trabecular): 70.7
Ovariectomized CD-1 mice [3]; OVX CD-1 mice + omeprazole, GA 15 ug/animal single s.c., 8 weeks, trabecular bone, listed as Gastrin antagonist
  Dens (Apparent Density, trabecular): 70.7±19
Ovariectomized CD-1 mice [3]; [13]
  % Change BS: −15%*
  % Change BV/TV: 2%*
  % Change Ct. Th: +39%*^,**
  % Change Dens (Apparent Density, cortical): −11%*^,**
  % Change pMOI: −11%
Ovariectomized CD-1 mice [3]; [14]
  % Change BS: −32%*^, **
  % Change BV/TV: −33%*^, **
  % Change Conns-Dens: −62%*^, **
  % Change Dens (Apparent Density, trabecular): −60%*^, **
  % Change SMI: +20%**
  % Change Tb. N: −30%*^, **
  % Change Tb. Sp: +82%*
  % Change Tb. Th: +28%*
[4]
  effect on gastrin-stimulated proliferation: not inhibited; also recorded: not reversed
Ovariectomized CD rats [5]
  effect on OVX changes in bone mineralization, resorption cavities and TRAP-positive osteoclasts: reversed
Ovariectomized CD rats [6]; [7]
  CTX1: 0.42
  ESR (circulating estrogen): 2.1 pg/mL
  Gastrin (circulating): 2971 pg/mL
  Osteocalcin: 0.80 ng/mL
  PINP: 0.48 ng/mL
  PTH (circulating): 1562
Ovariectomized CD rats [6]; [8]
  % Change CTX1: −49%
  % Change ESR: −60%*
  % Change Gastrin: +183%*
  % Change Osteocalcin: +81%**
  % Change PINP: +41%
  % Change PTH: −15%
Ovariectomized Mastomys; [15]
  BS: 14.21
  BV/TV: 0.953
  Ct. Th: 0.288
  Dens (Apparent Density, cortical): 1159
  pMOI: 1.10
Ovariectomized Mastomys; [16]
  BS: 19.2
  BV/TV: 0.175
  Conns-Dens: 124.1
  SMI: 0.74
  Tb. Sp: 0.457
Ovariectomized Mastomys; [17]
  Dens (Apparent Density, trabecular): 187.1
  Tb. N: 2.38
  Tb. Th: 0.086
Ovariectomized Mastomys; [18]
  Dens (Apparent Density, trabecular): 187±66
  Tb. N: 2.4±0.6
  Tb. Th: 0.08±0.01
Ovariectomized Mastomys; [19]
  % Change BS: −1%
  % Change BV/TV: 0%
  % Change Ct. Th: −1%
  % Change Dens (Apparent Density, cortical): −4%
  % Change pMOI: −4%
Ovariectomized Mastomys; [20]
  % Change BS: +4%**
  % Change BV/TV: +27%**
  % Change Conns-Dens: +28%
  % Change Dens (Apparent Density, trabecular): +19%**
  % Change SMI: 0%
  % Change Tb. N: +18%**
  % Change Tb. Sp: −20%**
  % Change Tb. Th: +25%*^; **
